Source: ChEMBL document CHEMBL4014354, “2'-Chloro,2'-fluoro Ribonucleotide Prodrugs with Potent Pan-genotypic Activity against Hepatitis C Virus Replication in Culture” (J Med Chem, 2017)

How the values were obtained:
[1] = test system: Hepatitis C virus; test: Antiviral activity against HCV genotype 1b harboring NS5B S282T mutant infected in human HuH7 cells assessed as inhibition of viral RNA replication after 4 days by luciferase reporter gene assay; format: functional, cell-based, Hepacivirus hominis; conditions: Huh-7, 96 h
[2] = Cytotoxicity against human PBMC assessed as inhibition of cell proliferation after 5 days by MTT assay; format: cell-based
[3] = Metabolic stability in human blood assessed as compound remaining at 2 uM after 2 hrs by LC-MS/MS method; format: ADME, tissue-based; conditions: read-out: Stability
[4] = test system: cytochrome c oxidase subunit 2 DNA (mitochondrial DNA) levels; test: in vitro; conditions: human, HepG2 cells
[5] = Cytotoxicity against African green monkey Vero cells assessed as inhibition of cell proliferation after 3 days by MTT assay; format: cell-based; conditions: chlorocebus sabaeus
[6] = test system: Hepatitis C virus; test: Antiviral activity against HCV genotype 1b infected in human HuH7 cells assessed as inhibition of viral RNA replication after 96 hrs by RT-PCR method; format: functional, cell-based, Hepacivirus hominis; conditions: Huh-7, 96 h
[7] = test system: Hepatitis C virus; test: Antiviral activity against HCV genotype 1b harboring wild type NS5B infected in human HuH7 cells assessed as inhibition of viral RNA replication after 5 days by RT-PCR method; format: functional, cell-based, Hepacivirus hominis; conditions: Huh-7, 120 h
[8] = test system: Hepatitis C virus; test: Antiviral activity against HCV genotype 2b infected in human HuH7 cells assessed as inhibition of viral RNA replication after 96 hrs by RT-PCR method; format: functional, cell-based, Hepacivirus hominis; conditions: Huh-7, 96 h
[9] = Metabolic stability in human intestinal microsomes assessed as compound remaining after 60 mins; format: ADME, Intestine, Microsome; conditions: read-out: Stability
[10] = molecular target: Cytochrome P450 2C9 (Homo sapiens, UniProt P11712); test: Inhibition of human CYP2C9 using sulfaphenazole […]; format: ADME
[11] = Prodrug conversion in human HuH7 cells assessed as increase in nucleoside 5' triphosphate levels at 50 uM after 4 hrs by LC-MS/MS analysis relative to sofosbuvir; format: ADME, cell-based; conditions: huh-7, 4 h
[12] = test system: HepG2; test: Mitochondrial toxicity in human HepG2 cells assessed as cytochrome c oxidase subunit 2 DNA levels at 10 uM measured on day 14 by RT-PCR method relative to nuclear beta-actin DNA levels; conditions: hepg2, 10 µM
[13] = in vitro; conditions: human, liver microsomes
Description: Half life in human liver microsomes at 1 uM by LC-MS/MS analysis

[14] = test system: nuclear DNA levels; test: in vitro; conditions: human, HepG2 cells
[15] = test system: Hepatitis C virus; test: Selectivity ratio of EC90 for HCV genotype 1b harboring NS5B S282T mutant to EC90 for HCV genotype 1b harboring wild type NS5B; format: functional, Hepacivirus hominis
[16] = test system: cytochrome c oxidase subunit 2 DNA (mitochondrial DNA) levels; test: Mitochondrial toxicity in human HepG2 cells assessed as inhibition of cytochrome c oxidase subunit 2 DNA levels at 50 uM measured on day 14 by RT-PCR method relative to nuclear beta-actin DNA levels; format: cell-based
[17] = test system: HepG2; test: Cytotoxicity against human HepG2 cells assessed as inhibition of nuclear DNA levels measured on day 14 by RT-PCR method; conditions: HepG2, 336 h
[18] = test system: cytochrome c oxidase subunit 2 DNA (mitochondrial DNA) levels; test: Mitochondrial toxicity in human HepG2 cells assessed as inhibition of cytochrome c oxidase subunit 2 DNA levels measured on day 14 by RT-PCR method; format: cell-based
[19] = Clearance in human intestinal microsomes; format: ADME, Intestine, Microsome
[20] = test system: Hepatitis C virus; test: Antiviral activity against HCV genotype 1a infected in human HuH7 cells assessed as inhibition of viral RNA replication after 96 hrs by RT-PCR method; format: functional, cell-based, Hepacivirus hominis; conditions: subtype 1a, Huh-7, 96 h
[21] = test system: Hepatitis C virus; test: Antiviral activity against HCV genotype 3a infected in human HuH7 cells assessed as inhibition of viral RNA replication after 96 hrs by RT-PCR method; format: functional, cell-based, Hepacivirus hominis; conditions: Huh-7, 96 h
[22] = molecular target: Cytochrome P450 3A4 (Homo sapiens, UniProt P08684); test: Inhibition of human CYP3A4 using ketoconazole […]; format: ADME
[23] = Cytotoxicity against human CEM cells assessed as inhibition of cell proliferation after 4 days by MTT assay; format: cell-based, CCRF-CEM
[24] = Cytotoxicity against human HuH7 cells assessed as inhibition of cell proliferation after 4 days by MTS assay; format: cell-based, Huh-7
[25] = test system: HepG2; test: Mitochondrial toxicity in human HepG2 cells assessed as lactic acid production at 50 uM measured on day 14 by spectrophotometric method relative to control; format: cell-based; conditions: hepg2, 50 µM
[26] = in vitro; conditions: human, liver microsomes; remark: listed apart in the source
Description: Clearance in human liver microsomes at 1 uM by LC-MS/MS analysis

[27] = test system: nuclear DNA levels; test: Cytotoxicity against human HepG2 cells assessed as inhibition of nuclear DNA levels at 50 uM measured on day 14 by RT-PCR method relative to nuclear beta-actin DNA levels; format: cell-based; conditions: read-out: INH
[28] = molecular target: Cytochrome P450 2D6 (Homo sapiens, UniProt P10635); test: Inhibition of human CYP2D6 using quinidine […]; format: ADME
[29] = in vitro; conditions: human, liver microsomes; remark: listed apart in the source
Description: Metabolic stability in human liver microsomes assessed as parent compound remaining at 1 uM at 60 mins by LC-MS/MS analysis

[30] = test system: Hepatitis C virus; test: Antiviral activity against HCV genotype 2a/k infected in human HuH7 cells assessed as inhibition of viral RNA replication after 96 hrs by RT-PCR method; format: functional, cell-based, Hepacivirus hominis; conditions: Huh-7, 96 h
[31] = test system: Hepatitis C virus; test: Antiviral activity against HCV genotype 4 infected in human HuH7 cells assessed as inhibition of viral RNA replication after 96 hrs by RT-PCR method; format: functional, cell-based, Hepacivirus hominis; conditions: genotype 4, Huh-7, 96 h
[32] = test system: HepG2; test: Mitochondrial toxicity in human HepG2 cells assessed as lactic acid production at 10 uM measured on day 14 by spectrophotometric method relative to control; format: cell-based; conditions: hepg2, 10 µM
[33] = molecular target: T1, Cytochrome P450 1A2 (Homo sapiens, UniProt P05177); test: Inhibition of human CYP1A2 using alpha-naphthoflavone […]; format: ADME
T1 sequence (P05177 whole entry): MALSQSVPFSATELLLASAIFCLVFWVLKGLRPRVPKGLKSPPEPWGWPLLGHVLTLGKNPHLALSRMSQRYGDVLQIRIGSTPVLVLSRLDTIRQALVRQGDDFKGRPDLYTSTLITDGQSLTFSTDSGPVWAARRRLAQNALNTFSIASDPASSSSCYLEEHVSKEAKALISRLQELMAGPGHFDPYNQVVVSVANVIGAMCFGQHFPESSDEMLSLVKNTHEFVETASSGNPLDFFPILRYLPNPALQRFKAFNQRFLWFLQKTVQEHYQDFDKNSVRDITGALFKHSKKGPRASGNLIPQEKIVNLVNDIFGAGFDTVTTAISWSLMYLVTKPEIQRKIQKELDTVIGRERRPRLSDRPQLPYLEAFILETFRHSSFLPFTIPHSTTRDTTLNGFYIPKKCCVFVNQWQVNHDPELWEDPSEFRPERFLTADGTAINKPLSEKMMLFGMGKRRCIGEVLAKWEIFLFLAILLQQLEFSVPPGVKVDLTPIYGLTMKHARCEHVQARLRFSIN

[34] = test system: Hepatitis C virus; test: Selectivity ratio of EC50 for HCV genotype 1b harboring NS5B S282T mutant to EC50 for HCV genotype 1b harboring wild type NS5B; format: functional, Hepacivirus hominis
[35] = Prodrug conversion in human primary hepatocytes assessed as increase in nucleoside 5' triphosphate levels at 50 uM after 4 hrs by LC-MS/MS analysis relative to sofosbuvir; format: ADME, cell-based, Hepatocyte
[36] = Cytotoxicity against human primary BMNC cells up to 50 uM measured on day 14; format: cell-based
[37] = Half life in human intestinal microsomes; format: ADME, Intestine, Microsome
[38] = test system: HepG2; test: Mitochondrial toxicity in human HepG2 cells assessed as cytochrome c oxidase subunit 2 DNA levels at 50 uM measured on day 14 by RT-PCR method relative to nuclear beta-actin DNA levels; format: cell-based; conditions: hepg2, 50 µM

Chain of Cytochrome P450 2C9 (P11712 whole entry): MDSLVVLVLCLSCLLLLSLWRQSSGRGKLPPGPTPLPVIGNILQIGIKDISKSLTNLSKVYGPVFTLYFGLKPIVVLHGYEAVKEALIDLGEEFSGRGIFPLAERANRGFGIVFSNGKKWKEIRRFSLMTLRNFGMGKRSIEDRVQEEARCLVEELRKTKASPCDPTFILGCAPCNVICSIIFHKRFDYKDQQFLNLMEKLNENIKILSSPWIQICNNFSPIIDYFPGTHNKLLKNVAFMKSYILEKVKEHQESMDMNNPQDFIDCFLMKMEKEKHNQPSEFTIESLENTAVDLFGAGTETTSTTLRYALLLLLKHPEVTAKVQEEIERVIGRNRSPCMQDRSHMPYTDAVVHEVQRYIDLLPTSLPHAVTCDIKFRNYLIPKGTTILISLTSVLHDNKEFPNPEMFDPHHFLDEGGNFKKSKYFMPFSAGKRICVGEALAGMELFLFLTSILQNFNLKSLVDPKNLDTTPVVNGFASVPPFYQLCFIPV
Chain of Cytochrome P450 2D6 (P10635 whole entry): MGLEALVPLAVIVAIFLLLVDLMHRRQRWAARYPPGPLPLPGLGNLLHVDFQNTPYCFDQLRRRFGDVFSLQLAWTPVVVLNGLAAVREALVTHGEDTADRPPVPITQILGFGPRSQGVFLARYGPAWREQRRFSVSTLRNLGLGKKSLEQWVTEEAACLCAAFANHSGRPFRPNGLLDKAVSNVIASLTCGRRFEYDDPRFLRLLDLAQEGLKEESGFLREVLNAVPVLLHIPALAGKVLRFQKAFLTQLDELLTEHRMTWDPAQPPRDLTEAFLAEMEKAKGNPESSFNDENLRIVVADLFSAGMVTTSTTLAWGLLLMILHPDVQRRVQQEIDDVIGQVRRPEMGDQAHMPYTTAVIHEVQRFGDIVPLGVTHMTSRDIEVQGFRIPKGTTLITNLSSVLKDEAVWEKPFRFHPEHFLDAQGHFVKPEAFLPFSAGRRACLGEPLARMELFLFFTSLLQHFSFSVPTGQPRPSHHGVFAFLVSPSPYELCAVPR
Chain of Cytochrome P450 3A4 (P08684 whole entry): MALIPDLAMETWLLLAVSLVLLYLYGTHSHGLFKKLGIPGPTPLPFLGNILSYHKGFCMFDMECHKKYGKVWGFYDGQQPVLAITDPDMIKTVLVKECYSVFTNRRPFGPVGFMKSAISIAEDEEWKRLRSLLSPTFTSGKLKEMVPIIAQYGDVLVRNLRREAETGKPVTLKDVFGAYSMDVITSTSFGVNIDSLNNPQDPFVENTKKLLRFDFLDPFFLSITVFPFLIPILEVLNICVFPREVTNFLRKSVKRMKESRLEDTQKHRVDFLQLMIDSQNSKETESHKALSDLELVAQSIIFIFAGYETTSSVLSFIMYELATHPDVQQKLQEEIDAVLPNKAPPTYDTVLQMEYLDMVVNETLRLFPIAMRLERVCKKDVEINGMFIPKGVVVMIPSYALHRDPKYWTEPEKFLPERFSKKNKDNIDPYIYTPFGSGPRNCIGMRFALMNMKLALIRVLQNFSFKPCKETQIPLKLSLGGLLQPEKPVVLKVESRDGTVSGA

CC(C)OC(=O)[C@H](C)NP(=O)(OC[C@H]1O[C@@H](n2ccc(=O)[nH]c2=O)[C@@](F)(Cl)[C@@H]1O)Oc1ccccc1 (mixture of isomers)
EC50 [1]: 70 nM | EC90 [1]: 200 nM | CC50 at 120 h [2]: > 100000 nM | remaining at 2 h, 2 µM [3]: 103% | inhibition at 14 days, 10 µM [4]: < 1% | CC50 at 72 h [5]: > 100000 nM | IC50 [6]: 150 nM | EC50 [7]: 20 to 200 nM | EC90 [7]: 70 to 400 nM | IC50 [8]: 90 nM | remaining at 1 h [9]: 79% | IC50 [10]: 25000 nM | fold change (FC) [11]: 2.7 | Activity [12]: 130% | half-life at 1 µM [13]: 0.193 h | cytotoxicity at 14 days, 10 µM [14]: < 1% | Selectivity ratio [15]: 2.9 | inhibition at 14 days, 50 µM [16]: 27% | IC50 [17]: > 50000 nM | IC50 at 14 days [18]: > 50000 nM | microsomal CLint [19]: 29 µL/min/mg | IC50 [20]: 130 nM | IC50 [21]: 150 nM | IC50 [22]: 6800 nM | CC50 at 96 h [23]: > 100000 nM | CC50 at 96 h [24]: > 10000 nM | Activity [25]: 56% | microsomal CLint at 1 µM [26]: 120 µL/min/mg | cytotoxicity at 14 days, 50 µM [27]: 13% | IC50 [28]: > 100000 nM | remaining at 1 h, 1 µM [29]: 4.2% | IC50 [30]: 50 nM | IC50 [31]: 170 nM | Activity [32]: 60% | IC50 [33]: > 100000 nM | Ratio EC50 [34]: 3.5 | fold change (FC) [35]: 2.3 | Activity [36]: Non-Toxic | half-life [37]: 2 h | Activity [38]: 84%
